Measured values published in US20100120701A1, “Compositions and Methods For Engineering Probiotic Yeast” (Glycosyn, Inc., priority 2008, published 2010).

Experiments:
calicivirus diarrhea = assay: Calicivirus diarrhea in breastfed infants by milk oligosaccharide level; format: in vivo, human; conditions: 93 nursing children consuming milk with high amounts; Poisson regression, P=0.012
Procedure: Milk samples were obtained weeks 2-5 postpartum from 93 Mexican mothers; the mothers and infants were followed from birth up to 2 yr postpartum. The clinical histories of the infants were recorded prospectively, and concentrations of individual oligosaccharides in these milk samples were measured. The most common oligosaccharides in maternal milk were those that were fucosylated, comprising 73% (50%-92%) of total oligosaccharide. Of these, 2′FL, the oligosaccharide homolog of the Lewis H-2 epitope, was the most common in the milks of all mothers. The mean concentration of 2′FL in milk was 3854±108 nmol/mL (34% of total fucosylated oligosaccharides), but varied greatly among mothers according to their Lewis blood group type.
Thus, human milk containing high levels of specific oligosaccharides are associated with decreased risk of pathogen-specific diarrhea and diarrhea overall. […] Because both the oligosaccharide and the high-molecular-weight glycans that share the same glycan epitope are synthesized by the same fucosyltransferase, the relationship between the oligosaccharide expression in milk and decreased risk in the infant reflects the synthetic capacity of the mother for both the free oligosaccharide and the homologous glycan. Specific human milk oligosaccharides protect breastfed children from disease by inhibiting binding of pathogens to the child's intestinal receptors.

Campylobacter jejuni = assay: C. jejuni binding to CHO cells transfected with a human α(1,2)-fucosyltransferase gene; format: cell-based; conditions: CHO cells overexpressing H-2 antigen

Molecule	protection against calicivirus diarrhea (calicivirus diarrhea)	inhibition of C. jejuni binding to transfected CHO cells (Campylobacter jejuni)
CC(=O)N[C@H]1[C@H](O[C@H]2[C@@H](O)[C@@H](CO)O[C@@H](O[C@H]3[C@H](O)[C@@H](O)C(O)O[C@@H]3CO)[C@@H]2O)O[C@H](CO)[C@@H](O[C@@H]2O[C@@H](C)[C@@H](O)[C@@H](O)[C@@H]2O)[C@@H]1O[C@@H]1O[C@H](CO)[C@H](O)[C@H](O)[C@H]1O[C@@H]1O[C@@H](C)[C@@H](O)[C@@H](O)[C@@H]1O (some centres unmarked) [LDFH-I]	associated with protection	
UEA I: ligand (lectin) that binds to H-2 (protein, UniProt P22972 1-243, looked up) Anti-H(O) lectin 1: SDDLSFKFKNFSQNGKDLSFQGDASVIETGVLQLNKVGNNLPDETGGIARYIAPIHIWNCNTGEVASFITSFSFFMETSANPKAATDGLTFFLAPPDSPLRRAGGYFGLFEDTKDNDSSYQTVAVEFDTIGSPVNFDDPGFPHIGIDVNRVKSINAERWNKRYGLNNVANVEIIYEASSKTLTASLTYPSDQTSISVTSIVDLKEILPEWVSVGFSGGTYIGRQATHEVLNWYFTSNLINTNS		inhibited
